According to patent US20120172375A1, “COMPOUNDS AND METHODS OF PROMOTING OLIGODENDROCYTE PRECURSOR DIFFERENTIATION” (priority 2008, published 2012):
“Also recorded” adds a separate entry of the source.

What was measured:
[1] = tested on: oligodendrocyte progenitors; assay: BrdU incorporation, proliferation of oligodendrocyte progenitors; type: cell-based, mouse; conditions: 10 nM, 48 h; Average±SEM; control 26.3±3.2; not statistically significant
Protocol: A feasible effect of small molecules on oligodendrocyte progenitor cells is the induction of proliferation. We studied this possibility by treating cultures of oligodendrocyte progenitors, previously exposed to compounds A, A-7 and B (10 nM, 48 h) with BrdU (Bromodeoxyuridine, 10 μM added 24 hrs before the end of the treatment) and posterior immunostaining to detect BrdU positive cells. This is a well established method to determine cell division and proliferation by incorporation of the […]. After counting BrdU positive oligodendrocytes versus total cells in three independent experiments we observed a slight tendency of increased proliferation in cells treated with compounds A, A-7 or B. However, there were not statistically significant differences between treated and control cells (control: 26.3±3.2; compound A: 29.2±4.0; compound A-7: 28,9±2.1; compound B: 27.6±6.7; Values are represented as Average±SEM).

[2] = tested on: Akt; assay: Akt activity in cell extracts of oligodendrocyte precursors (phosphorylation of Akt substrate GSKα/β); type: cell-based; conditions: 10 μM, 48 h
Description: Oligodendrocyte precursor differentiation requires the activation of a complex, highly controlled machinery that signals cells to stop migrating/proliferating and start extending processes and producing myelin components. A number of inducers and intracellular mediators of this process have been identified in vitro and in viva. […] Therefore, we studied whether our selected small molecules induced Akt signaling in oligodendrocyte precursors. We analyzed Akt activity in cell extracts of oligodendrocyte precursors treated with selected compounds (10 μM, 48 h), as determined by phosphorylation of Akt substrate GSKα/β.

[3] = tested on: cuprizone-fed C57B1/6J mice; assay: Myelin protein (PLP/DM20, MOG) immunostaining densitometry in cuprizone-demyelinated mice; type: in vivo; conditions: i.p., two doses
Protocol: For in vivo experiments in mice, the cuprizone-mediated demyelination model was implemented as described elsewhere, (Sun et al., 2006; Wu et al., 2008). In brief, 9 week-old C57B1/J6 mice were fed with cuprizone supplemented chow (0.3%, Harlan) during 4-6 weeks. At the end of this period, while the mice were still on cuprizone diet, the animals were injected I.P. with the indicated concentrations of small molecules dissolved in DMSO. 72 hrs later, a second dose was administered and at that point the food was changed to regular chow. 48 hr after the second dose, the animals were sacrificed perfused with 4% paraformaldehyde (PFH) and the brain tissue processed or immunohistochemistry.
Immunodetection of oligodendrocyte and myelin markers was performed. In brief, Oligodendrocyte cells plated on PDL-coated dishes were initially fixed in 2% paraformaldehyde (PFA) for 10 min at room temperature (RT) and then 4% PFA for 15 min, washed three times with PBS and permeabilized with 0.1% Triton X100 for 10 min at RT. After blocking with 3% BSA in PBS for 60 min a RT, the cells were incubated with primary antibodies at the indicated concentrations overnight (ON) at 4° C. The cells were washed three times with cold PBS incubated with secondary antibodies for 45 min at RT, and washed again before mounting. Immunostaining of tissue sections prepared with a sliding microtome (30 μm) was performed. In brief, tris buffered saline (TBS) containing 100 nM Sodium fluoride (TBSS) was used the all dilutions and washes. For antigen retrieval, sections were washed 3 times in TBSS, incubated in 5% methanol and 3% H2O2 for 10 min, washed 2 times, and then incubated in 10% Triton X-100 for 20 min. Blocking of unspecific bonds was performed by incubating the tissue sections with 10% NGS for 1 hr. Primary antibodies were diluted in 3% BSA containing 0.02% Triton X-100 and sections were incubated overnight in this solution. The next day the sections were washed 3 times in TBSS, followed by 1 hr incubation in secondary antibodies (1:1000) at 4° C. […]

[4] = Detection of small molecules in blood plasma and brain tissue by mass spectrometry; conditions: for blood plasma level, average / brain level, average: 4 mice; for blood plasma level, average / brain level, average / Biological sample concentration (nM), Brain / Biological sample concentration (nM), Plasma: 100 mg/kg i.p., two doses in 5 days; for crossing of the blood brain barrier: two I.P. doses in a five day-term
Protocol: The signal was optimized for each compound for positive or negative ionization by ESI (Electrospray ionization). A standard curve what made with pure compound solutions in DMSO up to 10 ng/ml. A MS2 scan was used to identify the progenitor ion and a product ion analysis was used to identify the best fragment for analysis and to optimize the collision energy. […] Samples were precipitated in 3 volumes of methanol with internal standard, centrifuged, and filtered. Filtered samples were analyzed by LC/MS/MS using either an Agilent 6410 mass spectrometer coupled with an Agilent 1200 HPLC and a CTC PAL chilled autosampler, all controlled by MassHunter software (Agilent), or an AB12000 mass spectrometer coupled with an Agilent 1100 HPLC and a CTC PAL chilled autosampler, all controlled by Analyst software (ABI). After separation on a C18 reverse phase HPLC column (Agilent, Waters, or equivalent) using an acetonitrile-water gradient system, peaks were analyzed by mass spectrometry (MS) using ESI ionization in MRM (Multiple Reaction Monitoring) mode.
4 mice per condition were injected i.p. (100 mg/kg), following the same experimental paradigm performed for the tissue analysis (two doses m a 5 days time).

[5] = tested on: tg[Plp:EGFP] zebrafish embryos; assay: Oligodendrocyte development in tg[Plp:EGFP] zebrafish embryos; type: in vivo; conditions: 1, 10 and 100 nM from 24 hpf, analysed at 72 hpf
Protocol: Transgenic-Proteolipid protein-enhanced green fluorescence protein (tg[plp:EGFP]) zebrafish was raised and maintained (Yoshida and Macklin, J. Neurosci Res, 81:1, 2005). Embryos were collected and staged by hour post fertilization (hpf). Compounds were added at 24 hpf stage at a concentration of 10 nM, 100 nM and 1 μM. After 48 hrs (72 hpf stage), zebrafish embryos were anesthetized in 0.02% tricaine, fixed in 4% paraformaldehyde, and washed in phosphate buffered saline (PBS). After treating with 10% Triton X-100 for 30 minutes, embryos were washed in PBS and blocked with 3% goat serum. Embryos were then incubated at 4° C. overnight with FITC-conjugated goat anti-GFP antibody (Abcam, Cambridge, Mass.) at a concentration of 1:1000. After several washes with PBS, the embryos were embedded in 100% glycerol and visualized on a Leica SP5 confocal microscope.
Embryos from transgenic-Plp-EGFP (tg[Plp:EGFP]) zebrafish were treated starting at 24 hours post fertilization (hpf) with compounds A, A-7 or B (1, 10 and 100 nM) or vehicle (DMSO). At 72 hpf effective treatments were analyzed by confocal microscopy after fixation and EGFP immunostaining of selected positive compounds.

| SMILES | BrdU positive oligodendrocytes versus total cells [1] | Akt phosphorylation [2] | effect on myelin protein expression / remyelination enhancement [3] | blood plasma level, average [4] [nM] | brain level, average [4] [nM] | Biological sample concentration (nM), Brain ([4]; Sample No. 1) [nM] | Biological sample concentration (nM), Plasma ([4]; Sample No. 1) [nM] | Biological sample concentration (nM), Brain ([4]; Sample No. 2) [nM] | Biological sample concentration (nM), Plasma ([4]; Sample No. 2) | Biological sample concentration (nM), Brain ([4]; Sample No. 3) [nM] | Biological sample concentration (nM), Plasma ([4]; Sample No. 3) [nM] | Biological sample concentration (nM), Brain ([4]; Sample No. 4) [nM] | Biological sample concentration (nM), Plasma ([4]; Sample No. 4) [nM] | crossing of the blood brain barrier [4] | number of oligodendrocyte progenitor cells and fluorescence intensity in embryos [5] |
| --- | --- | --- | --- | --- | --- | --- | --- | --- | --- | --- | --- | --- | --- | --- | --- |
| O=[N+]([O-])c1ccc(F)c(NS(=O)(=O)c2ccc(F)cc2)c1 [Compound B, 4-fluoro-N-(2-fluoro-5-nitrophenyl)benzenesulfonamide] | 27.6±6.7 | clearly detected | did not detect any relevant effect | – | – | – | – | – | – | – | – | – | – | – | – |
| CCS(=O)(=O)N1CCN(C(=O)COc2ccc(-c3ccccc3)cc2)CC1 [Compound A, 1-[(4-biphenylyloxy)acetyl]-4-(ethylsulfonyl)piperazine] | 29.2±4.0 | clearly detected | recovery of myelin protein expression | 131.3 | 9.2 | 4.6 | 90 | 14.7 | 149 nM | 13.2 | 129 | 4.3 | 157 | effectively crossed the blood brain barrier | clear increase; also recorded: increased accumulation of oligodendrocytes and enhanced differentiation |
| CC(C)N1CCN(C(=O)COc2ccc(-c3ccccc3)cc2)CC1 [Compound A-7, 1-(Biphenyl-4-yloxy)acetyl-4-isopropylpiperazine] | – | – | recovery of myelin protein expression | 9.2 | 13.5 | 16.6 | 4.2 | 16.8 | 5.3 L nM | 4.21 | – | 6.2 | 3.6 | effectively crossed the blood brain barrier | clear increase; also recorded: increased accumulation of oligodendrocytes and enhanced differentiation |
